Measured values taken from patent publication US20230404985A1, “METHODS OF TREATING TUMORS AND CANCERS HAVING DYSREGULATED WNT SIGNALING PATHWAYS” (ICAHN SCHOOL OF MEDICINE AT MOUNT SINAI, priority 2020, published 2023).

Legend:
AKSP tumoroids = test: Full dose-response in CRC tumoroids (AKSP); type: cell-based, mouse; settings: TiterGlo after 72 hours
Protocol: FIGS. 13A-13E show results pertaining to colorectal cancer. […] Data are column/gene normalized on a 0-100 scale with 0 being the lowest expression level and 100 the highest. FIG. 13D show full dose-response analysis of WNTinib's effects on the indicated organoid and tumoroid lines; viability was quantified using the TiterGlo assay after 72 hours. WT intestinal organoids are used as a control. […] Images of the intestine are shown as an example.
Next, a full dose-response of WNTinib in WildType normal organoids (WT), APC^KO (A), APC^KO KRAS^G12D/SMAD4^KO (AKS) and APC^KO KRAS^G12D/SMAD4^KO P53^KO (AKSP) tumoroids was performed. WNTinib has a lower IC50 in the aggressive metastatic AKSP tumoroids compared to their matched parental WT organoid line, providing thus a therapeutic window for the most advanced CRC models (FIG. 13D).

[1] = Dose escalation studies in mice; type: in vivo, mouse
Protocol: Mice were randomized into treatment groups, and daily oral dosing began one week after mice arrived at ISMMS. Body weight was recorded daily, and animals were monitored for any signs of sickness throughout the treatment period.
To rationalize a treatment regimen for WNTinib and understand potential toxicity, in vivo dose escalation was performed in three mouse strains (FIG. 8A, FIGS. 12A-12B). Mice were dosed daily for two weeks, and body weight loss was used as a proxy for systemic toxicity.

[2] = system: MYC-Tp53 tumor organoid allografts; test: MYC-Tp53 tumor organoid allografts; type: in vivo, C57BL/6J mice; settings: 30 mg/kg daily oral gavage
Protocol: 300,000 cells per allograft were prepared in 8 mg/mL Matrigel. 6-8-week-old C57BL/6J mice were shaved the day prior to injection. A 26^5/8-gauge needle was used to implant organoids into the flank in 100 μL Matrigel. Tumor allografts were measured daily with calipers, and upon an average volumetric measurement of 100 mm^3, animals were randomized and drug dosing was started. Drugs were dosed daily at 30 mg/kg via oral gavage. Tumor allografts were also measured daily.
MYC-CTNNB1 tumor organoids were engrafted into C57BL/6 mice and treatment was started when tumor volume reached 100 mm^3.

[3] = system: MYC-CTNNB1 tumor organoid allografts; test: MYC-CTNNB1 tumor organoid allografts; type: in vivo, C57BL/6J mice
[4] = 14-day oral gavage tissue toxicity study; type: in vivo
[5] = system: MYC-CTNNB1 tumor organoids; test: Combination treatment matrices in MYC-CTNNB1 tumor organoids; type: cell-based, mouse; settings: for effect of EZH2 degradation or inhibition (MS1943, GSK343) on activity: 3 days MS1943 or GSK343, then 3 days co-treatment; for Combination Index CI with p38i SB202190: titration of SB202190; for Combination Index CI with p38i SB202190 / Combination Index CI with KIT ligand SCF / Combination Index CI with BRAFi dabrafenib: 3 days; for Combination Index CI with KIT ligand SCF: titration of SCF; for Combination Index CI with BRAFi dabrafenib: titration of dabrafenib
Excerpt: FIG. 6A-6C are Volcano plots depicting phosphoproteomic (FIG. 6A), transcriptomic (FIG. 6B), and orepigenomic H3K27me3 (FIG. 6C) changes elicited by WNTinib inMYC-CTNNB1 tumor organoids (left) or MYC-Tp53 tumor organoids (right) as compared to DMSO. […] Values obtained from two biological replicates. […] Western blots measure endogenous proteins as indicated. […] Tubulin and histone H3 used as fractionation controls. […] Inset: western blot depicting depletion efficiency. Values obtained from three biological replicates [mean, SEM]. […] Tumor organoids were first treated with MS1943 or GSK343 for 3 days, followed by co-treatment with sorafenib or WNTinib for an additional 3 days. […] Combination index (CI) values were calculated for each column and averaged across each matrix.
Tumor organoids were treated for 3 days. […] Combination index (CI) values were calculated for each column and averaged across each matrix. […] FIGS. 7G-7H show combination treatment matrices for MYC-CTNNB1 tumor organoids treated with sorafenib (right) or WNTinib (left) and the BRAF inhibitor dabrafenib (FIG. 7G), or the p38 inhibitor SB202190 (FIG. 7H). Tumor organoids were treated for 3 days. […] Combination index (CI) values were calculated for each column and averaged across each matrix. […] Values obtained from three technical replicates [mean, SEM].
For assays in organoid lines, 96 well plates were first coated with a 50:50 solution of basal media:Matrigel (35 μL/well), which polymerized for 15 minutes at 37° C. Tumor organoids were taken out of Matrigel, broken, and washed. Tumor organoids were seeded at 1,000 cells per well and were treated the following day with serial dilutions (in the case of IC50 curves) or single doses (in the case of the initial screen) of drugs in technical triplicate. Final DMSO concentrations were kept below 0.5%. For adherent lines, cells were seeded at 5,000 cells per well in uncoated 96 well plates. […] Viability was measured three days post drug administration with either luminescence from CellTiter-Glo or absorbance at 560 and 590 nm from resazurin. Viability data was analyzed by normalizing individual drug-treated well values to DMSO-treated wells.

WNT pathway reporter = test: GFP-based WNT reporter in stable MYC-CTNNB1 organoids; type: cell-based, mouse
Excerpt: The library was further refined by performing dose-response curves on tumor organoids and primary human hepatocytes (FIG. 1C). In addition, stable MYC-CTNNB1 organoids expressing a GFP-based WNT reporter were created to assess direct transcriptional inhibition of the pathway. […] WNTinib was exemplary for its therapeutic index, as defined by its preferential activity in the CTNNB1-driven model as compared to hepatocytes.

[6] = dosed daily via oral gavage for two weeks, three mouse strains
[7] = WNTinib 20 mg/kg daily, anti-PD-1 200 μg i.p., start ~350 mm^3
[8] = tumors of advanced-stage allograft study

SMILES | IC50 in AKSP tumoroids compared to parental WT organoid line (AKSP tumoroids) | tolerability of exposures ([1]; dose escalation and 20 mg/kg PK (FIG. 8A, 8B)) | body weight loss [1, 6] | signs of sickness [1, 6] | activity in MYC-Tp53 allografts [2] | survival in allograft combination study [3, 7] | tumor regression in allograft combination study [3, 7] | efficacy in allograft combination study ([3]; WNTinib 20 mg/kg, sorafenib 30 mg/kg daily, anti-PD-1 200 μg i.p., start ~350 mm^3) | tumor regression ([3]; treatment started at 100 mm^3, 30 mg/kg daily oral gavage) | efficacy in advanced-stage setting versus sorafenib ([3]; treatment started at 300-400 mm^3, WNTinib 20 mg/kg, sorafenib 30 mg/kg) | EZH2 T367 phosphorylation in tumors [3, 8] | WNT-target genes in tumors (qPCR) [3, 8] | pathological changes in brain, heart, esophagus, large intestine ([4]; 60 mg/kg and 120 mg/kg oral gavage, 14 days) | toxicity in mouse intestine ([4]; 14 days daily treatment, up to 4-fold the therapeutic dose) | effect of EZH2 degradation or inhibition (MS1943, GSK343) on activity [5] | Combination Index CI with p38i SB202190 [5] | Combination Index CI with KIT ligand SCF [5] | Combination Index CI with BRAFi dabrafenib [5] | WNT-driven GFP expression (WNT pathway reporter) (WNT pathway reporter)
CNC(=O)c1cc(Oc2ccc(NC(=O)Nc3ccc(C(F)(F)C(F)(F)F)cc3)c(F)c2)ccn1 [WNTinib, 4-(3-fluoro-4-(3-(4-(perfluoroethyl)phenyl)ureido)phenoxy)-N-methylpicolinamide] | lower IC50 | well-tolerated | weight loss did occur in a dose-dependent manner | No mice showed signs of sickness | inactive | prolong survival | able to induce tumor regression | superior efficacy | induced significant tumor regression in the majority of animals | superior to the standard of care clinical compound (sorafenib) | inhibition of EZH2 T367 phosphorylation | in vivo suppression of WNT-target genes | do not reveal pathological changes | no toxicity was observed in mouse intestine | antagonized the activity of WNTinib | > 1 | > 1 | > 1 | only compound to downregulate WNT-driven GFP expression
CNC(=O)c1cc(Oc2ccc(NC(=O)Nc3ccc(Cl)c(C(F)(F)F)c3)cc2)ccn1 [sorafenib, reference compound] | – | – | – | – | better activity | – | – | – | – | – | – | – | – | – | did not alter the dose response to sorafenib | this was not the case for sorafenib | only WNTinib and not sorafenib activity was antagonized | this was not the case for sorafenib | –
